The source of these data is patent US9399639B2, “Substituted azaindole compounds, salts, pharmaceutical compositions thereof and methods of use” (Calitor Sciences, LLC, priority 2012, dated 2016).

Data set [1] in a line: Compound stability in human liver microsomes. To be noted: for Human T1/2: 1 μM. It counts as in vitro ADME. The protocol:
(§1) Human or rat liver microsomes incubations were conducted in duplicate in polypropylene tubes. […] Compounds were dissolved in DMSO and diluted with PBS such that the final concentration of DMSO was 0.05%. The enzymatic reactions were commenced with the addition of protein after a 3 min preincubation and incubated in a water bath open to the air at 37° C. Reactions were terminated at various time points (0, 5, 10, 15, 30, 60 min) by adding equal volume of ice-cold acetonitrile. The samples were stored at −80° C. until LC/MS/MS assays.
(§2) The concentrations of compounds in the incubation mixtures of human (or rat) liver microsomes were determined by a LC/MS/MS method. The ranges of the linearity in the concentration range were determined for each tested compounds.
(§3) A parallel incubation was performed using denatured microsomes as the negative control, and reactions were terminated at various time points (for example, 0, 15, 60 min) after incubation at 37° C.
(§4) Dextromethorphan (70 μM) was selected as the positive control, and reactions were terminated at various time points (0, 5, 10, 15, 30, 60 min) after incubation at 37° C. Both positive and negative control samples were included in each assay to ensure the integrity of the microsomal incubation system.
(§5) Alternatively, the stability of some of the compounds disclosed herein in human (or rat) liver microsomes were also conducted in the following protocol. The incubations were conducted in duplicate in polypropylene tubes. […] Compounds were dissolved in DMSO and diluted with K-buffer such that the final concentration of DMSO was 0.2%. The enzymatic reactions were commenced with the addition of 15 μL of NADPH (final concentration: 2 mM) after 10 min preincubation and incubated in a 37° C. incubator. Reactions were terminated at various time points (0, 15, 30, 60 min) by adding 135 μL acetonitrile (contain IS). Protein is removed by centrifugation with 4,000 rpm, 10 min.
(§6) In the above protocol, ketanserin (1 μM) was selected as the positive control, and reactions were terminated at various time points (0, 15, 30, 60 min) after incubation at 37° C. The positive control sample was included in each assay to ensure the integrity of the microsomal incubation system.
(§7) The concentrations of compounds in liver microsome incubations were plotted as a percentage of the relevant zero time point control for each reaction. The in vivo CLint were extrapolated (ref: Naritomi et al., Prediction of human hepatic clearance from in vivo animal experiments and in vitro metabolic studies with liver microsomes from animals and humans, Drug Metab. Dispos., 2001, 29: 1316-1324.) […]

A short description of data set [2]: Compound stability in rat liver microsomes. Type of data set: in vitro ADME. To be noted: for Rat T1/2: 1 μM. The protocol:
as §1, §2, §3, §4, §5, §6, §7

Data set [3] in a line: Stability in rat plasma. It counts as in vitro ADME. The note with it: read-out: Rat T1/2. The protocol:
(§8) Similarly, selected compounds of the invention were also assessed for their stability in human and rat plasma, and the results are listed in Table 3.

Data set [4] can be described thus: Stability in human plasma. It counts as in vitro ADME. The note with it: read-out: Human T1/2. The protocol:
as §8

In data set [5] the test system is Colo-205 Tumor Xenograft. In words: Colo-205 tumor xenograft model, tumor growth inhibition. It counts as in vivo, athymic nude mice. To be noted: Colo-205 xenograft, p.o., 15 days. The protocol: The efficacy of compounds disclosed herein is evaluated in a standard murine model of tumorigenesis. Human tumor cells (i.e., Colo-205 Tumor Xenograft models) are expended in culture, harvested, and injected subcutaneously onto the rear flank of 6-7 week old female athymic nude mice (BALB/cA nu/nu, Shanghai SLAC Laboratory Animal, Co.) (n=10 for vehicle group, n=8 for each dosing group). When tumor reaches a volume of 100-250 mm^3, animals are randomly divided into vehicle control (for example, 5% PEG400+5% Solutol HS 15 in water or 5% EtOH+5% CremophorEL+1% HCl (11.7%), pH 2.2 in water) and compound groups. Subsequent administration of compound by oral gavage (for example, 6-60 mpk/dose, dissolved in 5% PEG400+5% Solutol HS 15 in water or 5% EtOH+5% CremophorEL+1% HCl (11.7%), pH 2.2 in water) begins anywhere from day 0 to day 15 post tumor cell challenge and generally continues with once a day for the duration of the experiment.
Progression of tumor growth is assessed by tumor volumes and recorded as a function of time. The long (L) and short (W) axes of the subcutaneous tumors are measured with calipers twice weekly, and the tumor volume (TV) calculated as (L×W^2)/2). TGI is calculated from the difference between the median tumor volumes of vehicle-treated and drug-treated mice, expressed as a percentage of the median tumor volume of the vehicle-treated control group, by the following relation:
Initial statistical analysis is done by repeated measures analysis of variance (RMANOVA), Followed by Scheffe post-hoc testing for multiple comparisons. Vehicle alone (2% HPMC+1% Tween-80, or the like) is the negative control.
The compouds described herein were also administrated orally (p.o.) once a day (QD) or (BID) for 15 days in Colo-205 xenograft animal model. At doses of 20 mg/kg, the compouds produced statistically significant inhibition of growth of certain tumors grown subcutaneously in athymic nude mice.

The conditions of data set [6]: cited from earlier work.
A short description of data set [7]: Pharmacokinetics in beagle dogs. Type of data set: in vivo. To be noted: vemurafenib dosed. An excerpt:
(§9) Compounds disclosed herein are prodrugs. […] However, the prodrug compounds are modified in vivo to produce a parent compound that has known inhibitory activities against certain protein kinases. Kinase inhibition activity of prodrug compounds is established by quantitating the blood or plasma levels of parent compound after prodrug administration. In vivo blood or plasma levels are reported as Cmax (maximum blood or plasma concentration) and AUC (area under curve from zero to a certain period of time or infinity, a measure of total drug exposure). Methods of measuring Cmax, AUC and other pharmacokinetic parameters in dogs and rats are provided in Example C.
(§10) The LC/MS/MS system used in the analysis consists of an Agilent 1200 Series vacuum degasser, binary pump, well-plate autosampler, thermostated column compartment, the Agilent G6430 TripleQuadrupole Mass Spectrometer with an electrospray ionization (ESI) source. Quantitative analysis was carried out using MRM mode. The parameters for MRM transitions are in the Table A.
(§11) An Agilent XDB-C18, 2.1×30 mm, 3.5 μM column was used for the analysis. 5 μL of the samples were injected. Analysis condition: The mobile phase was 0.1% formic acid in water (A) and 0.1% formic acid in methanol (B). The flow rate was 0.4 mL/min. And the gradient of Mobile phase was in the Table B.
(§12) Alternatively, an Agilent 6330 series LC/MS/MS spectrometer equipped with G1312A binary pumps, a G1367A autosampler and a G1314C UV detector was used in the analysis. An ESI source was used on the LC/MS/MS spectrometer. The analysis was done in positive ion mode as appropriate and the MRM transition for each analyte was optimized using standard solution. A Capcell MP-C18 100×4.6 mm I.D., […] column (Phenomenex, Torrance, Calif., USA) was used during the analysis. The mobile phase was 5 mM ammonia acetate, 0.1% MeOH in water (A): 5 mM ammonia acetate, 0.1% MeOH in acetonitrile (B) (70:30, v/v). The flow rate was 0.6 mL/min. Column was maintained at ambient temperature. 20 μL of the samples were injected.
(§13) Selected compounds of the invention and Vemurafenib were assessed in pharmacokinetic studies in mice, rats, dogs or monkeys. The compounds were administered as a water solution, 2% HPMC+1% TWEEN® 80 in water solution, 5% DMSO+5% solutol in saline, 4% MC or capsule. For the intravenous administration, the animals were generally given at 1 or 2 mg/kg dose. For the oral (p.o.) dosing, mice and rats were generally given 5 or 10 mg/kg dose, and dogs and monkeys were generally given 7-100 mg/kg dose. The blood samples (0.3 mL) were drawn at 0.25, 0.5, 1.0, 2.0, 3.0, 4.0, 6.0, 8.0, 12 and 24 h time points or 0.083, 0.25, 0.5, 1.0, 2.0, 4.0, 6.0, 8.0 and 24 h time points and centrifuged at 3,000 or 4000 rpm for 2 to 10 min. The plasma solutions are collected and stored at −20° C. or −70° C. before analyzed by LC/MS/MS as described above.

Data set [8] in a line: Pharmacokinetics in SD rats. Type of data set: in vivo. The note with it: vemurafenib dosed.
From the text: as §9, §10, §11, §12, §13

For data set [9], the system named is B-Raf. To be noted: B-Raf V600E vs wild-type, purified kinase assays; cited from earlier work.
Setting [10] is: pH 7.4, in vivo CLint extrapolated.
Setting [11] is: Sprague-Dawley, rat, plasma, IV 1 mg/kg.
Setting [12] is: Sprague-Dawley, rat, plasma, PO 10 mg/kg.

Molecules are shown by their SMILES.

In the case of `CCCS(=O)(=O)Nc1ccc(F)c(C(=O)c2cn(COC(=O)[C@@H](N)CC(C)C)c3ncc(-c4ccc(Cl)cc4)cc23)c1F.Cl` [Ex. 23, (S)-(5-(4-chlorophenyl)-3-(2,6-difluoro-3-(propylsulfonamido)benzoyl)-1H-pyrrolo[2,3-b]pyridin-1-yl)methyl 2-amino-4-methylpentanoate hydrochloride], the CLint scaled at 1 μM in data set [1] (setting [10]) is 15.4 mL/min/kg; in data set [2] (setting [10]) it was 429 mL/min/kg. Further, the half-life at 1 μM in [1] (pH 7.4, read-out: Human T1/2) is 1.88 h; in data set [2] (pH 7.4, read-out: Rat T1/2) it was 5.8 min. Besides, the half-life at 2 μM in [3] is 3.42 min; in data set [4], 3.06 min.
`CCCS(=O)(=O)Nc1ccc(F)c(C(=O)c2cn(COP(=O)([O-])[O-])c3ncc(-c4ccc(Cl)cc4)cc23)c1F.[Na+].[Na+]` [Ex. 25, sodium (5-(4-chlorophenyl)-3-(2,6-difluoro-3-(propylsulfonamido)benzoyl)-1H-pyrrolo[2,3-b]pyridin-1-yl)methyl phosphate]: the “TGI % (on the last day of dosing)” value is reported as 41% in data set [5] (6 mg/kg/qd), 95% in data set [5] (20 mg/kg/bid), 59% in [5] (20 mg/kg/qd) and 108% in data set [5] (60 mg/kg/qd). Besides, the “Human T1/2” value in [1] is recorded as “∞”. In addition, the “Rat T1/2” value in data set [2] is given as “∞”.
`CCCS(=O)(=O)Nc1ccc(F)c(C(=O)c2cn(C(C)OP(=O)([O-])[O-])c3ncc(-c4ccc(Cl)cc4)cc23)c1F.[Na+].[Na+]` (centres unmarked) [Ex. 32, sodium 1-(5-(4-chlorophenyl)-3-(2,6-difluoro-3-(propylsulfonamido)benzoyl)-1H-pyrrolo[2,3-b]pyridin-1-yl)ethyl phosphate]: the “TGI % (on the last day of dosing)” value in data set [5] (6 mg/kg/qd) came out at 29%; in data set [5] (20 mg/kg/bid), 102%; in data set [5] (20 mg/kg/qd), 68%; in data set [5] (60 mg/kg/qd) it was 110%. In data set [1], the “Human T1/2” value is “∞”. Further, the “Rat T1/2” value in data set [2] is recorded as “∞”.
For `CCCS(=O)(=O)Nc1ccc(F)c(C(=O)c2c[nH]c3ncc(-c4ccc(Cl)cc4)cc23)c1F` [Vemurafenib, N-(3-(5-(4-chlorophenyl)-1H-pyrrolo[2,3-b]pyridine-3-carbonyl)-2,4-difluorophenyl)propane-1-sulfonamide], the solubility in water entry in data set [6] is on record as “low solubility in water”. Moreover, the F worked out at 33.4% in data set [7] (PO 10 mg/kg) and 104% in data set [8] (PO 10 mg/kg). The AUC(0-t) in data set [7] (dog, plasma, IV 1 mg/kg) amounted to 4880 ng·h/mL; in data set [7] (dog, plasma, PO 10 mg/kg), 16500 ng·h/mL; in data set [8] (setting [11]), 25200 ng·h/mL; in [8] (setting [12]), 261000 ng·h/mL. Further, the half-life in [7] (dog, plasma, IV 1 mg/kg) was 1.59 h; in [7] (dog, plasma, PO 10 mg/kg) it was 3.9 h; in [8] (setting [11]) it was 3.75 h; in [8] (setting [12]), 3.54 h. Moreover, the Cmax in data set [7] (dog, plasma, PO 10 mg/kg) amounted to 2150 ng/mL; in [8] (setting [12]) it was 25400 ng/mL. Further, the Tmax in [7] (dog, plasma, PO 10 mg/kg) was found to be 2 h; in [8] (setting [12]), 4 h. Besides, the “TGI % (on the last day of dosing)” value in data set [5] (6 mg/kg/qd) is given as 33%; in data set [5] (20 mg/kg/bid), 101%; in data set [5] (20 mg/kg/qd), 73%; in [5] (60 mg/kg/qd) it was 104%. In data set [9], the “selectivity for the V600E mutation over the wild-type kinase” value is on record as 3 fold.
